Measured values taken from ChEMBL document CHEMBL3393050, “Fine tuning of 4,6-bisphenyl-2-(3-alkoxyanilino)pyrimidine focusing on the activity-sensitive aminoalkoxy moiety for a therapeutically useful inhibitor of receptor for advanced glycation end products (RAGE)” (Bioorg Med Chem, 2015).
Activity calls are given as the source filed them. The calls are words filed in the database; no cut-off is given here.

Test system: not listed separately
Assay: Kinetic solubility in DMSO solution at pH 4 by nephelometry
Assay type: physicochemical
Settings: read-out: Kinetic_solubility

| solubility kinetic | SMILES |
| --- | --- |
| > 500 µM | CN(C)C1CCN(CCOc2cccc(Nc3nc(-c4ccc(Cl)cc4)cc(-c4ccc(Cl)cc4)n3)c2)C1.Cl (stereo unspecified) |
| 372 µM | CCN(CC)CCOc1cccc(Nc2nc(-c3ccc(Cl)cc3)cc(-c3ccc(Cl)cc3)n2)c1.Cl |

Target: Advanced glycosylation end product-specific receptor (Homo sapiens) (UniProt Q15109)
Sequence (Q15109 whole entry): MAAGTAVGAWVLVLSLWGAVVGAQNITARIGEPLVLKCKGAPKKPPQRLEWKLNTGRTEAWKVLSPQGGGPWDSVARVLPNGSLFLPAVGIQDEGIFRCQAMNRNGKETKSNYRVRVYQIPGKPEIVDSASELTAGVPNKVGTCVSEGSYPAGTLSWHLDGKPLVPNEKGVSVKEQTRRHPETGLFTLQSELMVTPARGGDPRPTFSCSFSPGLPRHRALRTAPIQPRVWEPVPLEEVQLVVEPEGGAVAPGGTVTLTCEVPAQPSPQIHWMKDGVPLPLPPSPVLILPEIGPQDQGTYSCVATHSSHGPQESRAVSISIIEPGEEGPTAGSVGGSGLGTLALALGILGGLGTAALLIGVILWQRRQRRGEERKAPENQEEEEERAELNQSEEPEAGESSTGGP
Assay: Inhibition of biotinylated human RAGE assessed as bound amyloid beta level at 20 uM after 60 mins by ELISA relative to control
Settings: not given

| SMILES | inhibition |
| --- | --- |
| O=C(O)CCOc1cccc(Nc2nc(-c3ccc(Cl)cc3)cc(-c3ccc(Cl)cc3)n2)c1 | inactive |
| CONC(=O)CCOc1cccc(Nc2nc(-c3ccc(Cl)cc3)cc(-c3ccc(Cl)cc3)n2)c1 | inactive |
| CO/N=C/CCOc1cccc(Nc2nc(-c3ccc(Cl)cc3)cc(-c3ccc(Cl)cc3)n2)c1 | inactive |
| CCOCCOc1cccc(Nc2nc(-c3ccc(Cl)cc3)cc(-c3ccc(Cl)cc3)n2)c1 | inactive |
| O=C1CCCN1CCOc1cccc(Nc2nc(-c3ccc(Cl)cc3)cc(-c3ccc(Cl)cc3)n2)c1 | inactive |
| CON(C)C(=O)CCOc1cccc(Nc2nc(-c3ccc(Cl)cc3)cc(-c3ccc(Cl)cc3)n2)c1 | inactive |
| COC(=O)CCOc1cccc(Nc2nc(-c3ccc(Cl)cc3)cc(-c3ccc(Cl)cc3)n2)c1 | inactive |

Continued, values first:

| inhibition | SMILES |
| --- | --- |
| inactive | Clc1ccc(-c2cc(-c3ccc(Cl)cc3)nc(Nc3cccc(OCCN4CCOCC4)c3)n2)cc1 |
| inactive | O=C1CCN(CCOc2cccc(Nc3nc(-c4ccc(Cl)cc4)cc(-c4ccc(Cl)cc4)n3)c2)CC1 |
| inactive | Clc1ccc(-c2cc(-c3ccc(Cl)cc3)nc(Nc3cccc(OCCN4CCSCC4)c3)n2)cc1 |

Same assay, conditions: values are per cent of control

| SMILES | residual binding, % of control |
| --- | --- |
| CN(C)C1CCN(CCOc2cccc(Nc3nc(-c4ccc(Cl)cc4)cc(-c4ccc(Cl)cc4)n3)c2)C1.Cl (stereo unspecified) | 143% |
| CN(C)CCOc1cccc(Nc2nc(-c3ccc(Cl)cc3)cc(-c3ccc(Cl)cc3)n2)c1 | 24% |
| CCN(CCO)CCOc1cccc(Nc2nc(-c3ccc(Cl)cc3)cc(-c3ccc(Cl)cc3)n2)c1 | 101% |
| COC1CCCN(CCOc2cccc(Nc3nc(-c4ccc(Cl)cc4)cc(-c4ccc(Cl)cc4)n3)c2)C1 (stereo unspecified) | 48% |
| CC(C)(C)OC(=O)NC1CCN(CCOc2cccc(Nc3nc(-c4ccc(Cl)cc4)cc(-c4ccc(Cl)cc4)n3)c2)C1 (stereo unspecified) | 46% |
| CCN(CCOC)CCOc1cccc(Nc2nc(-c3ccc(Cl)cc3)cc(-c3ccc(Cl)cc3)n2)c1 | 88% |
| CN1CCN(c2cccc(Nc3nc(-c4ccc(Cl)cc4)cc(-c4ccc(Cl)cc4)n3)c2)CC1 | 74% |
| CCN(CC)CCCOc1cccc(Nc2nc(-c3ccc(Cl)cc3)cc(-c3ccc(Cl)cc3)n2)c1 | 84% |

Next, values leading:

| residual binding, % of control | SMILES |
| --- | --- |
| 52% | OC1CCCN(CCOc2cccc(Nc3nc(-c4ccc(Cl)cc4)cc(-c4ccc(Cl)cc4)n3)c2)C1 (stereo unspecified) |
| 71% | CN1CCN(CCOc2cccc(Nc3nc(-c4ccc(Cl)cc4)cc(-c4ccc(Cl)cc4)n3)c2)CC1 |
| 106% | NC1CCN(CCOc2cccc(Nc3nc(-c4ccc(Cl)cc4)cc(-c4ccc(Cl)cc4)n3)c2)C1 (stereo unspecified) |
| 112% | Clc1ccc(-c2cc(-c3ccc(Cl)cc3)nc(Nc3cccc(OCCN4CCCCC4)c3)n2)cc1 |
| 114% | Clc1ccc(-c2cc(-c3ccc(Cl)cc3)nc(Nc3cccc(OCCN4CCCC4)c3)n2)cc1 |

Test system: not listed separately
Assay: Kinetic solubility in DMSO solution at pH 7.4 by nephelometry
Assay type: physicochemical
Settings: read-out: Kinetic_solubility

| solubility kinetic | SMILES |
| --- | --- |
| 28.2 µM | CN(C)C1CCN(CCOc2cccc(Nc3nc(-c4ccc(Cl)cc4)cc(-c4ccc(Cl)cc4)n3)c2)C1.Cl (stereo unspecified) |
